According to patent publication US20120196919A1, “EX-VIVO TREATMENT OF IMMUNOLOGICAL DISORDERS WITH PKC-THETA INHIBITORS” (NEW YORK UNIVERSITY, priority 2009, published 2012):

Legend:
PKC-theta = PKC-theta (Homo sapiens, UniProt Q04759); experiment: luciferase assay for inhibition of the kinase activity of PKC-theta; format: biochemical; conditions: luciferase assay of US 2005/0124640
Procedure: The preparation of these compounds and the luciferase assay used to determine the IC50 for inhibition of the kinase activity of PKC-theta are described in US Patent Application Publication number 2005/0124640. For the in vitro and ex vivo assays above, compounds were dissolved in DMSO. T cells were pretreated with indicated concentrations of the inhibitors or DMSO control for 30 min at 37° C. and washed three times.

[1] = test system: Treg cells purified from RA patients; experiment: Suppression of IFN-gamma from autologous Teff by Treg purified from RA patients; format: cell-based, human; conditions: Treg from 25 RA patients, 1 microM 30 min, Treg/Teff 1:3, 24-48 h (FIG. 5d)
Procedure: Colitis was induced in C57BL/10.PL TCR alpha^−/−beta^−/− mice as described in Methods summary. 5a—numbers of mice were 5 (PBS), 8 (Teff), 7 (Teff/Treg control), 7 (Teff/Treg PKC-theta inhibitor). 5b-Histology slides of distal colon for the different groups. Normal histology is observed in PKC-theta treated mice. 5c, 5d-Freshly purified Treg from healthy donors and RA patients were treated or not with PKC-theta inhibitor for 30 min at 1 microM, washed three times, mixed with CD4^+CD25^− T cells at ratio 1:3, and plated on anti-CD3 mAb. The supernatants were analyzed for IFN-gamma after 24-48 hours. Combined data of three independent experiments are presented. % Treg-mediated inhibition was calculated as: 1−level of IFN-gamma in presence of Treg/level of IFN-gamma in absence of Treg)φ100%. P values were calculated by t-test. […]
(§1) CD4^+CD25^+ Treg and CD4^+CD25^− Teff cells were purified from the peripheral blood of healthy human donors or from 25 patients with Rheumatoid arthritis in different stages (accordingly to disease activity score (DAS)) as described in the literature M. L. Prevoo, et al., Arthritis and rheumatism, 1995, 38, 44; A. Zanin-Zhorov, et al., J. Clin. Invest, 2006, 116, 2022). […] Cytokine secretion was determined by ELISA as previously described A. Zanin-Zhorov, et al., ibid., 2006), using Human IFN-gamma Cytose™ (Biosource; Camarillo, Calif.). […]

CD4+CD25+ Treg cells [2] = experiment: T cell transfer model of colitis with ex vivo treated Treg; format: in vivo, C57BL/10.PL TCR alpha-/-beta-/- mice; conditions: inhibitor treated Treg
Procedure: Colitis was induced in C57BL/10.PL TCR alpha^−/−beta^−/− mice as described in Methods summary. 5a—numbers of mice were 5 (PBS), 8 (Teff), 7 (Teff/Treg control), 7 (Teff/Treg PKC-theta inhibitor). 5b-Histology slides of distal colon for the different groups. Normal histology is observed in PKC-theta treated mice. 5c, 5d-Freshly purified Treg from healthy donors and RA patients were treated or not with PKC-theta inhibitor for 30 min at 1 microM, washed three times, mixed with CD4^+CD25^− T cells at ratio 1:3, and plated on anti-CD3 mAb. The supernatants were analyzed for IFN-gamma after 24-48 hours. Combined data of three independent experiments are presented. % Treg-mediated inhibition was calculated as: 1−level of IFN-gamma in presence of Treg/level of IFN-gamma in absence of Treg)φ100%. P values were calculated by t-test.
Next, we determined the ability of PKC-theta inhibitor Ia to up-regulate Treg function in vivo using a colitis model in TCR alpha^−/−beta^−/− mice induced by transfer of effector CD4^+CD25^−CD45RB^+ Teff cells (F. Powrie, et al., J. Exp. Med. 1996, 183, 2669).
[…] Disease progression was monitored by body weight loss, diarrhea and histology analysis as previously described (F. Powrie, et al., J. Exp. Med. 1996, 183, 2669). P values were determined by Mann-Whitney test or two-tailed t-test by using the GraphPad Prism software (San Diego, Calif.).

CD4+CD25+ Treg cells [3] = experiment: Treg/Teff co-culture on anti-CD3 mAb, cell proliferation by Alamar Blue; format: cell-based, human; conditions: Treg treated 0.001-1 microM 30 min, washed, Treg/Teff 1:9, anti-CD3; proliferation after 96 h (FIG. 1b)
Procedure: (§2) Treg cells and CD4^+CD25^− Teff (non-Treg) cells were treated with Compound Ia at 0.001-1 microM (a-b) for 30 min, or at 1 microM for 0-60 min (c). Treated cells were mixed with CD4^+CD25^− T (Teff) cells at 1:9 ratio and plated on immobilized anti-CD3 mAb. The supernatants were analyzed for IFN-gamma after 24-48 hours (a and c). Cell proliferation was determined after 96 hours (b). Average of four different experiments is shown.
CD4^+CD25^+ regulatory T cells (Tregs) suppress the function of CD4^+ and CD8^+ effector cells (Teff) through an antigen receptor and cell contact mechanism. […] IFN-gamma secretion and cell proliferation were measured after 24 and 96 hours respectively. […]
as §1, with “Calif.). Proliferation was assessed by Alamar Blue™ assay (Invitrogen) as previously described (S. A. Ahmed, et al., J. immunological Methods, 1994, 170, 211-224).” for “Calif.).”

CD4+CD25+ Treg cells [4] = experiment: Treg/Teff co-culture on anti-CD3 mAb, IFN-gamma secretion by ELISA; format: cell-based, human
Procedure: as §2
Treg were treated with 1 microM PKC-theta inhibitors with different IC50 values as indicated on graph. Treated cells were mixed with CD4^+CD25^− T (Teff) cells at 1:9 ratio and plated on immobilized anti-CD3 mAb. The supernatants were analyzed for IFN-gamma after 24-48 hours. An average of four different experiments is shown. As shown in the graph, the enhancement of suppressive effect on IFN-gamma secretion generally correlates with the potency of the inhibitors.
Treated Treg and non-Treg, or siRNA-transfected Treg were mixed with CD4^+CD25^− T (Teff) cells at 1:9 ratio and plated on immobilized anti-CD3 mAb. The supernatants were analyzed for IFN-gamma after 24-48 hours. An average of four different experiments is shown.
CD4^+CD25^+ regulatory T cells (Tregs) suppress the function of CD4^+ and CD8^+ effector cells (Teff) through an antigen receptor and cell contact mechanism. […] We investigated whether inhibition of PKC-theta may affect the suppressive function of human CD4^+CD25^+ Treg cells in vitro. For this purpose, we treated CD4^+CD25^+ Treg or CD4^+CD25^− Teff cells (Treg or non-Treg respectively in FIGS. 1a and 1b) with a specific PKC-theta inhibitor, namely, Compound Ia, washed and cultured the cells with untreated Teff cells in a ratio of 1:9 on stimulatory anti-CD3 antibodies. IFN-gamma secretion and cell proliferation were measured after 24 and 96 hours respectively. […] Moreover, the effect of PKC-theta inhibitor on Treg function was time-dependent; maximal levels of enhanced suppressive function were achieved after 30 min of Treg treatment with the compound (FIG. 1c).
as §1, with “Calif.). Proliferation was assessed by Alamar Blue™ assay (Invitrogen) as previously described (S. A. Ahmed, et al., J. immunological Methods, 1994, 170, 211-224).” for “Calif.).”

Sequence of PKC-theta (Q04759 whole entry): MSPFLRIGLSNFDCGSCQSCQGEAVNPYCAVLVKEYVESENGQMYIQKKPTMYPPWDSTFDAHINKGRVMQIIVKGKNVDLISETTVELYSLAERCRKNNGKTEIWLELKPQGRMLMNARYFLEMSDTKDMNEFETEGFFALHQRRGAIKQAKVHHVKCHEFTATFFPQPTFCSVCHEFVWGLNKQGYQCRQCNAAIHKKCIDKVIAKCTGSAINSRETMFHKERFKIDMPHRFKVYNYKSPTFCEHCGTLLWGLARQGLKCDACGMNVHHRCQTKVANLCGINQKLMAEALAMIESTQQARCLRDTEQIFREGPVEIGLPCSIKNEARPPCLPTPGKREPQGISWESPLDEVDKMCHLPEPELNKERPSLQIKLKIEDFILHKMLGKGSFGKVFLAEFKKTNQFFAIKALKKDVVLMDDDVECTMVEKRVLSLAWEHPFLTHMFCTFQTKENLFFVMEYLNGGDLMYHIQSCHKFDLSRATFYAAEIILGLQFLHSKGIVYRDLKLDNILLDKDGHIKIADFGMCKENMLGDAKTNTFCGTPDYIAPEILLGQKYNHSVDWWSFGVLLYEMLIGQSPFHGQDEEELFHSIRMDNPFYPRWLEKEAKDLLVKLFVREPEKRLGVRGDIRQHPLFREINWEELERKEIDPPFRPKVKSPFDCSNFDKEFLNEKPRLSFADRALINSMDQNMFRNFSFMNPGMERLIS

With `O=[N+]([O-])c1cnc(SCc2ccccc2Cl)nc1NCC1CCNCC1` [Ic] the IC50 (PKC-theta) was 8 nM.
For `N[C@H]1CC[C@H](CNc2nc(NCc3ccccc3OC(F)(F)F)ccc2[N+](=O)[O-])CC1` [Ie], the IC50 (PKC-theta) was 1000 nM.
`O=[N+]([O-])c1cnc(NCC2CCNCC2)nc1NCc1ccccc1OC(F)(F)F` [Id] showed an IC50 (PKC-theta) of 300 nM.
`N[C@H]1CC[C@H](CNc2nc(NCc3ccccc3OC(F)(F)F)ncc2[N+](=O)[O-])CC1` [Ib] gave an IC50 (PKC-theta) of 1 nM.
With `NC[C@H]1CC[C@H](CNc2nc(NCc3ccccc3OC(F)(F)F)ncc2[N+](=O)[O-])CC1` [Compound Ia] the “suppressive function of Treg cells purified from RA patients (IFN-gamma)” value [1] was “significantly increased”, the IC50 (PKC-theta) was 0.7 nM and the “mice with normal weight gain and normal histology of the distal colon” value (CD4+CD25+ Treg cells [2]; 1:4 ratio of Treg/Teff) was 7 of 8. The “protection of the recipient mice from colitis” value (CD4+CD25+ Treg cells [2]; 1:4 ratio of Treg/Teff (FIGS. 5a and 5b)) was roughly 100%, the “suppressive ability of Treg cells (cell proliferation)” value (CD4+CD25+ Treg cells [3]) was “significantly up-regulated” and the “induction of suppressive activity in treated Teff (non-Treg) added to untreated responder Teff” value (CD4+CD25+ Treg cells [4]; CD4+CD25- Teff treated, 1:9 ratio (FIGS. 1a and 1b)) was “does not induce suppressive activity”. The “suppressive ability of Treg cells (IFN-gamma production by Teff)” value (CD4+CD25+ Treg cells [4]; Treg treated 0.001-1 microM 30 min, washed, Treg/Teff 1:9, anti-CD3, IFN-gamma after 24 h (FIG. 1a)) was “significantly up-regulated”, the “treatment time for maximal levels of enhanced suppressive function” value (CD4+CD25+ Treg cells [4]; Treg treated at 1 microM for 0-60 min, IFN-gamma readout (FIG. 1c)) was 30 min and the “ability of Treg cells to inhibit IFN-gamma secretion in Teff cells” value (CD4+CD25+ Treg cells [4]; treated or siRNA-transfected Treg, Treg/Teff 1:9, 24-48 h (FIG. 4)) was “increased”.
